Data published in patent US20260028354A1, “TETRAHYDRONAPHTHALENE DERIVATIVES AS ESTROGEN RECEPTOR DEGRADERS” (REGENT OF THE UNIVERSITY OF MICHIGAN, priority 2022, published 2026).

Experiment: Western blot analysis for "B" compounds
Assay type: cell-based
Settings: read-out: Traditional Western Degradation Potency (DC50)
Protocol: Western Blot Analysis. Western blot analysis was performed essentially as described previously. The cells treated with indicated compounds were lysed in Radioimmunoprecipitation Assay Protein Lysis and Extraction Buffer (25 mmol/I. Tris.HCl, pH 7.6, 150 mmol/L, NaCl, 1% Nonidet P-40, 1% sodium deoxycholate, and 0.1% sodium dodecyl sulfate) containing proteinase inhibitor cocktail (Roche Diagnostics, Mannheim, Germany). Equal amounts of total protein were electrophoresed through 10% SDS-polyacrylamide gels after determination of protein concentration by BCA assay (Fisher Scientific, Pittsburgh, PA), The separated protein bands were transferred onto PVDF membranes (GE Healthcare Life Sciences, Marlborough, MA) and blotted against different antibodies, as indicated. The blots were scanned, and the band intensities were quantified using GelQuant.NET software provided by biochemlabsolutions.com. The relative mean intensity of target proteins was expressed after normalization to the intensity of glyceraldehyde-3-phosphate dehydrogenase bands.

| DC50 | Structure (SMILES) |
| --- | --- |
| > 100 nM | O=C1CCC(N2C(=O)c3cc4c(cc3C2=O)CN(CC2CN(C(=O)C3CN(c5ccc([C@@H]6c7ccc(O)cc7CC[C@@H]6c6ccccc6)cc5)C3)C2)C4)C(=O)N1 (stereo partly drawn) [Compound B37, 2-(2,6-dioxopiperidin-3-yl)-6-((1-(1-(4-((1R,2S)-6-hydroxy-2-phenyl-1,2,3,4-tetrahydronaphthalen-1-yl)phenyl)azetidine-3-carbonyl)azetidin-3-yl)methyl)-6,7-dihydropyrrolo[3,4-f]isoindole-1,3(2H,5H)-dione] |
| 10 to 100 nM | O=C1CCC(N2C(=O)c3cc4c(cc3C2=O)CN(CC2CCN(C(=O)C3CCN(c5ccc([C@@H]6c7ccc(O)cc7CC[C@@H]6c6ccccc6)cc5)CC3)CC2)C4)C(=O)N1 (mixture of isomers) [Compound B8, 2-(2,6-dioxopiperidin-3-yl)-6-((1-(1-(4-((1R,2S)-6-hydroxy-2-phenyl-1,2,3,4-tetrahydronaphthalen-1-yl)phenyl)piperidine-4-carbonyl)piperidin-4-yl)methyl)-6,7-dihydropyrrolo[3,4-f]isoindole-1,3(2H,5H)-dione] |
| > 100 nM | O=C1CCC(N2C(=O)c3cc4c(cc3C2=O)CN(CC2CCC(NC3CN(c5ccc([C@@H]6c7ccc(O)cc7CC[C@@H]6c6ccccc6)cc5)C3)CC2)C4)C(=O)N1 (stereo partly drawn) [Compound B99, 2-(2,6-dioxopiperidin-3-yl)-6-((4-((1-(4-((1R,2S)-6-hydroxy-2-phenyl-1,2,3,4-tetrahydronaphthalen-1-yl)phenyl)azetidin-3-yl)amino)cyclohexyl)methyl)-6,7-dihydropyrrolo[3,4-f]isoindole-1,3(2H,5H)-dione] |
| > 100 nM | O=C1CCC(N2C(=O)c3cc4c(cc3C2=O)CN(CC2CCN(CC3(F)CN(c5ccc([C@@H]6c7ccc(O)cc7CC[C@@H]6c6ccccc6)cc5)C3)CC2)C4)C(=O)N1 (stereo partly drawn) [Compound B74, 2-(2,6-dioxopiperidin-3-yl)-6-((1-((3-fluoro-1-(4-((1R,2S)-6-hydroxy-2-phenyl-1,2,3,4-tetrahydronaphthalen-1-yl)phenyl)azetidin-3-yl)methyl)piperidin-4-yl)methyl)-6,7-dihydropyrrolo[3,4-f]isoindole-1,3(2H,5H)-dione] |
| > 100 nM | O=C1CCC(N2C(=O)c3cc4c(cc3C2=O)CN(C2CCC(CNC3CN(c5ccc([C@@H]6c7ccc(O)cc7CC[C@@H]6c6ccccc6)cc5)C3)CC2)C4)C(=O)N1 (stereo partly drawn) [Compound B181, 2-(2,6-dioxopiperidin-3-yl)-6-(4-(((1-(4-((1R,2S)-6-hydroxy-2-phenyl-1,2,3,4-tetrahydronaphthalen-1-yl)phenyl)azetidin-3-yl)amino)methyl)cyclohexyl)-6,7-dihydropyrrolo[3,4-f]isoindole-1,3(2H,5H)-dione] |

More lines, now with the values behind:

| Structure (SMILES) | DC50 |
| --- | --- |
| O=C1CCC(N2C(=O)c3cc4c(cc3C2=O)CCN(CC(=O)N2CCC3(CC2)CCN(c2ccc([C@@H]5c6ccc(O)cc6CC[C@@H]5c5ccccc5)cc2)CC3)CC4)C(=O)N1 (stereo partly drawn) [Compound B39, 2-(2,6-dioxopiperidin-3-yl)-7-(2-(9-(4-((1R,2S)-6-hydroxy-2-phenyl-1,2,3,4-tetrahydronaphthalen-1-yl)phenyl)-3,9-diazaspiro[5.5]undecan-3-yl)-2-oxoethyl)-6,7,8,9-tetrahydroazepino[4,5-f]isoindole-1,3(2H,5H)-dione] | > 100 nM |
| O=C1CCC(N2C(=O)c3cc4c(cc3C2=O)CN(CC2CCC3(CC2)CN(C(=O)c2ccc([C@@H]5c6ccc(O)cc6CC[C@@H]5c5ccccc5)cc2)C3)C4)C(=O)N1 (stereo partly drawn) [Compound B288, 2-(2,6-dioxopiperidin-3-yl)-6-((2-(4-((1R,2S)-6-hydroxy-2-phenyl-1,2,3,4-tetrahydronaphthalen-1-yl)benzoyl)-2-azaspiro[3.5]nonan-7-yl)methyl)-6,7-dihydropyrrolo[3,4-f]isoindole-1,3(2H,5H)-dione] | > 100 nM |
| O=C1CCC(N2C(=O)c3cc4c(cc3C2=O)CN(CCN2CC3(CCN(c5ccc([C@@H]6c7ccc(O)cc7CC[C@@H]6c6ccccc6)cc5)CC3)C2)C4)C(=O)N1 (mixture of isomers) [Compound B197, 2-(2,6-dioxopiperidin-3-yl)-6-(2-(7-(4-((1R,2S)-6-hydroxy-2-phenyl-1,2,3,4-tetrahydronaphthalen-1-yl)phenyl)-2,7-diazaspiro[3.5]nonan-2-yl)ethyl)-6,7-dihydropyrrolo[3,4-f]isoindole-1,3(2H,5H)-dione] | 10 to 100 nM |
| O=C1CCC(N2C(=O)c3cc4c(cc3C2=O)CN(CC(=O)N2CCC3(CC2)CN(c2ccc([C@@H]5c6ccc(O)cc6CC[C@@H]5c5ccc(F)cc5Cl)cc2)C3)C4)C(=O)N1 (mixture of isomers) [Compound B259, 6-(2-(2-(4-((1R,2S)-2-(2-chloro-4-fluorophenyl)-6-hydroxy-1,2,3,4-tetrahydronaphthalen-1-yl)phenyl)-2,7-diazaspiro[3.5]nonan-7-yl)-2-oxoethyl)-2-(2,6-dioxopiperidin-3-yl)-6,7-dihydropyrrolo[3,4-f]isoindole-1,3(2H,5H)-dione] | 10 to 100 nM |
| O=C1CCC(N2C(=O)c3cc4c(cc3C2=O)CN(C2CCN(C(=O)C3CCN(c5ccc([C@@H]6c7ccc(O)cc7CC[C@@H]6c6ccccc6)cc5)CC3)CC2)C4)C(=O)N1 (stereo partly drawn) [Compound B7, 2-(2,6-dioxopiperidin-3-yl)-6-(1-(1-(4-((1R,2S)-6-hydroxy-2-phenyl-1,2,3,4-tetrahydronaphthalen-1-yl)phenyl)piperidine-4-carbonyl)piperidin-4-yl)-6,7-dihydropyrrolo[3,4-f]isoindole-1,3(2H,5H)-dione] | < 10 nM |
| CN(c1ccc([C@@H]2c3ccc(O)cc3CC[C@@H]2c2ccccc2)cc1)C1CN([C@H]2CC[C@@H](C(=O)N3Cc4cc5c(cc4C3)C(=O)N(C3CCC(=O)NC3=O)C5=O)CC2)C1 (stereo partly drawn) [Compound B131, 2-(2,6-dioxopiperidin-3-yl)-6-((1S,4s)-4-(3-((4-((1R,2S)-6-hydroxy-2-phenyl-1,2,3,4-tetrahydronaphthalen-1-yl)phenyl)(methyl)amino)azetidin-1-yl)cyclohexane-1-carbonyl)-6,7-dihydropyrrolo[3,4-f]isoindole-1,3(2H,5H)-dione] | > 100 nM |
| O=C1CCC(N2C(=O)c3cc4c(cc3C2=O)CN(CC(=O)N2CCC3(CC2)CCN(c2ccc([C@@H]5c6ccc(O)cc6CC[C@@H]5c5ccc(F)cc5)cc2)CC3)CC4)C(=O)N1 (mixture of isomers) [Compound B193, 2-(2,6-dioxopiperidin-3-yl)-6-(2-(9-(4-((1R,2S)-2-(4-fluorophenyl)-6-hydroxy-1,2,3,4-tetrahydronaphthalen-1-yl)phenyl)-3,9-diazaspiro[5.5]undecan-3-yl)-2-oxoethyl)-5,6,7,8-tetrahydro-1H-pyrrolo[3,4-g]isoquinoline-1,3(2H)-dione] | 10 to 100 nM |
| O=C1CCC(N2C(=O)c3cc4c(cc3C2=O)CN(CC(=O)N2CC3(CCC(Oc5ccc([C@@H]6c7ccc(O)cc7CC[C@@H]6c6ccccc6)cc5)CC3)C2)C4)C(=O)N1 (stereo partly drawn) [Compound B278, 2-(2,6-dioxopiperidin-3-yl)-6-(2-(7-(4-((1R,2S)-6-hydroxy-2-phenyl-1,2,3,4-tetrahydronaphthalen-1-yl)phenoxy)-2-azaspiro[3.5]nonan-2-yl)-2-oxoethyl)-6,7-dihydropyrrolo[3,4-f]isoindole-1,3(2H,5H)-dione] | > 100 nM |
